Measurements from article PMC12363518, “Azobenzene-Modified Temperature-Responsive Short Elastin-like Peptides for Photo-Controlled Phase Transition” (ACS Synthetic Biology, 2025).
Numbered stars: 1 amine (or outer) side, 2 acyl side, 3 side chain; on linkers, the order of the positions; unused ones are H or OH. Bridge positions count the residues as written; N and C are the ends. Peptide text beside a SMILES is read from it. I, II: the chains in the order shown. X1 = O=C(c1ccc(N=Nc2ccc(C(=O)[*:2])cc2)cc1)[*:1]

Test: Turbidity measurement (OD600) of temperature-dependent phase separation, Tt
Assay type: physicochemical
Procedure: The ability of the ELP–azobenzene conjugates to self-assemble was investigated by using turbidity measurements. In addition, we evaluated whether the photoisomerization of the azobenzene moieties induced differences in the aggregation ability of these analogues. Each peptide analogue was dissolved in PBS at different concentrations according to its water solubility. To quantitatively evaluate the aggregation ability, the transition temperature (T t) of the peptides was calculated from the change in optical density at a wavelength of 600 nm (OD600) associated with the increasing temperature (Table and Figure ).
The temperature-dependent self-assembly property of synthesized peptides was evaluated by using a JASCO V-660 spectral photometer (JASCO Co.). Each peptide was dissolved in PBS buffer or phosphate buffer solutions at various concentrations. Three types of phosphate buffers with the same ionic strength (μ = 0.100) but different pH (pH 7.4, 2.1, and 11.5) were prepared: phosphate buffer (pH 7.4, 29.4 mM Na2HPO4, 11.7 mM NaH2PO4), phosphate buffer (pH 2.1, 10.0 mM NaH2PO4, 10.5 mM phosphoric acid), and phosphate buffer (pH 11.5, 9.58 mM Na3PO4, 14.2 mM Na2HPO4). Turbidity was measured at 600 nm with increasing or decreasing temperature at a rate of 0.5 °C/min from 5 °C. The measurements were performed for the dark-adapted solution and after successive irradiation with UV light, visible light, and UV light. Each assay was repeated three times with different peptide solutions that were prepared separately. The phase separation property was described by the phase transition temperature (T t), which is the temperature at which the turbidity of the solution reaches half its maximum value.

CC(C)[C@H](NC(=O)CNC(=O)[C@@H]1CCCN1C(=O)[C@H](Cc1ccccc1)NC(=O)CNC(=O)[C@@H](NC(=O)CNC(=O)[C@@H]1CCCN1C(=O)[C@H](Cc1ccccc1)NC(=O)[C@H](CCCCN)NC(=O)c1ccc(N=Nc2ccc(C(=O)N[C@@H](CCCCN)C(=O)N[C@@H](Cc3ccccc3)C(=O)N3CCC[C@H]3C(=O)NCC(=O)N[C@H](C(=O)NCC(=O)N[C@@H](Cc3ccccc3)C(=O)N3CCC[C@H]3C(=O)NCC(=O)N[C@H](C(=O)NCC(=O)O)C(C)C)C(C)C)cc2)cc1)C(C)C)C(=O)NCC(=O)O [Azb-2(K-F2)] (I: KFPGVGFPGVG-OH / II: KFPGVGFPGVG-OH; linker I:N-II:N via X1)
Tt,UV (phase transition temperature) (after "UV" conditions 1 h, PBS pH 7.4, OD600, 0.5 °C/min, Tt at half-maximal turbidity, concentrations as in Table 2, n = 3): 35.08 ± 0.30 °C | Tt,UV–vis (phase transition temperature) (after "UV–vis" conditions 1 h, PBS pH 7.4, OD600, 0.5 °C/min, Tt at half-maximal turbidity, concentrations as in Table 2, n = 3): 32.55 ± 0.67 °C | Tt,UV–vis–UV (phase transition temperature) (after "UV–vis–UV" conditions 1 h, PBS pH 7.4, OD600, 0.5 °C/min, Tt at half-maximal turbidity, concentrations as in Table 2, n = 3): 35.94 ± 1.15 °C | Tt, UV in phosphate buffer (PB) (after UV irradiation, PB pH 7.4 (ionic strength 0.100), 3.00 mg/mL (1.27 mM), OD600): 31.42 ± 0.78 °C | Tt, dark in phosphate buffer (PB) (dark-adapted, PB pH 7.4 (ionic strength 0.100), Azb-2(K-F2) 3.00 mg/mL (1.27 mM), 2(D-F2)-Azb 1.50 mg/mL (0.66 mM), OD600): 27.57 ± 0.18 °C | Tt,dark (phase transition temperature) (dark-adapted, PBS pH 7.4, OD600, 0.5 °C/min from 5 °C, Tt at half-maximal turbidity, F2-Azb-F2 100 μM, F2-Azb-F2-NH2 50 μM, Azb-2(K-F2) 1.27 mM, 2(F2-D)-Azb 0.66 mM, n = 3 separately prepared solutions): 32.09 ± 0.14 °C | phase separation in acidic phosphate buffer (phosphate buffer pH 2.1, Azb-2(K-F2) 1.27 mM, 2(F2-D)-Azb 0.66 mM, turbidity OD600): did not show phase separation | phase separation in neutral phosphate buffer (phosphate buffer pH 7.4, Azb-2(K-F2) 1.27 mM, 2(F2-D)-Azb 0.66 mM, turbidity OD600): underwent thermoresponsive phase separation | phase separation in basic phosphate buffer (phosphate buffer pH 11.5, Azb-2(K-F2) 1.27 mM, 2(F2-D)-Azb 0.66 mM, turbidity OD600): did not show phase separation
